# Experimental data reported in US20210102200A1, “SMALL MOLECULE TARGETED RECRUITMENT OF A NUCLEASE TO RNA” (The Scripps Research Institute, priority 2018, published 2021).
# “Also recorded” adds a separate entry of the source.
# Experiments:
# [1] = system: mature miR-96; test: Mature miR-96 levels in cells by RT-qPCR; assay type: cell-based; conditions: MDA-MB-231 cells
# Protocol: (§1) Cell culture: All cells were maintained at 37° C. with 5% CO2. MDA-MB-231 (HTB-26, ATCC) cells were cultured in RPMI 1640 medium with L-glutamine & 25 mM HEPES (Corning) supplemented with 10% FBS (Sigma) and 1×Antibiotic-Antimycotic (Corning). A549 (CCL-185, ATCC), HeLa (CCL-2, ATCC), and MCF7 (HTB-22, ATCC) cells were cultured in DMEM medium with 4.5 g/L glucose (Corning), supplemented with 10% FBS (Sigma), 1×Glutagro (Corning), and 1×Antibiotic-Antimycotic (Corning). MCF10a (CRL-10317, ATCC) cells were cultured in DMEM/F12 50/50 with L-glutamine & 15 mM HEPES (Corning), supplemented with 10% FBS (Sigma), 20 ng/mL human epidermal growth factor (Pepro Tech Inc.), […] hydrocortisone (Pfaltz & Bauer), 100 ng/mL cholera toxin (Sigma-Alrich), 10 μg/mL insulin (Sigma-Aldrich), and 1×Antibiotic-Antimycotic (Corning). […]
# (§2) RNA isolation and RT-qPCR: Total RNA was extracted from untreated and treated cells by using a Quick-RNA MiniPrep (Zymo Research) per the manufacturer's protocol. […] RNA expression levels were determined using the ΔΔCt method and normalized with U6 small nuclear RNA as a housekeeping gene. Upon treatment with chimeric compound 2, relative cleavage levels were calculated according to equation 2 (Eq. 2) in order to control for the effect of parent compound 1a, on pri-miR-96 expression: […]
# [2] = system: pri-miR-96; test: In vitro cleavage of pri-miR-96 by RNase L (fluorescence-based and gel mapping); assay type: biochemical; conditions: in vitro competition
# Source text: Determination of RNA cleavage by fluorescence: A model RNase L substrate RNA1 labeled with a 5′ 6-Fluorescein and 3′ Iowa Black® FQ (5′-6FAM-UUAUCAAAU […] 3′ (SEQ ID NO: 1)—Iowa Black® FQ: RNA 1) was purchased from Integrated DNA Technologies, Inc. (IDT), which also HPLC purified the oligonucleotide. A model of pri-miR-96 RNA labeled with 5′ 6-Fluorescein and 3′ Quencher (IQ4, structure undisclosed) (5′-6FAM […] […] 3′ (SEQ ID NO: 2)—IQ4: RNA 2) was purchased from and HPLC purified by Chemgenes. Solutions of RNA 1 or RNA 2 were folded at 70° C. for 5 min and cooled to room temperature in RNase L Buffer without MgCl2, β-mercaptoethanol or ATP. After cooling, the RNA was supplemented with 10 mM MgCl2, fresh 7 mM β-mercaptoethanol, and 50 μM of ATP. […] Fluorescence intensity (Ex: 485 nm, Em: 528 nm) was measured on a BioTek FLx800 plate reader. Relative Fluorescence Enhancement was calculated by normalizing the fluorescent signal of treated RNA samples to the fluorescent signal of untreated RNA samples. Percentage RNA Cleavage was calculated by normalizing sample fluorescent signals relative to the maximum fluorescent signal, set as 100%. […] Normalized RNA Cleavage was calculated by normalizing sample fluorescent signals relative to the maximum fluorescent signal (compound with no tRNA), set as 1. […]
# [3] = target: pri-miR-96's Drosha site; conditions: parent compound, pri-miR-96 Drosha site; cited from earlier work
# [4] = system: pri-miR-96; test: pri-miR-96 levels / cleavage in cells by RT-qPCR; assay type: cell-based
# Protocol: as §1, §2
substance,measurement,setting,value
Targaprimir-96 [Compound 1a],mature miR-96 levels,[1],reduced
same,Cleavage at U12 by 2 upon addition of the parent compound,[2],inhibited
same,Kd,[3],20 nM
same,pri-miR-96 levels,"[4]; MDA-MB-231 cells, RT-qPCR",increased; also recorded: boosted
same,2-mediated pri-miR-96 cleavage upon co-treatment with 1a,"[4]; constant concentration of 2, increasing concentrations of 1a",decreased pri-miR-96 cleavage levels in a dose dependent fashion; also recorded: reduced
